Source: ChEMBL document CHEMBL1201862, “PubChem BioAssay data set” (2004)
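These data come from cells grown in 96-well plates and exposed to compound for 48 hours at five concentrations. The concentration for 50% growth inhibition is given as GI50.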 Active and inactive are the calls of the source. Cut-off read from the data, not from the text of the source: active = GI50 up to about 1.1 µM and inactive = higher.

How the values were obtained:
Test in all cases: DTP human tumour cell line panel, 48 h
SK-MEL-2 = system: SK-MEL-2
NCI-H522 = system: NCI-H522
CCRF-CEM = system: CCRF-CEM
M14 = system: M14
UACC-257 = system: UACC-257
T47D = system: T47D
CAKI-1 = system: CAKI-1
MDA-MB-231 = system: MDA-MB-231
Hs-578T = system: Hs-578T
MCF7 = system: MCF7
DU-145 = system: DU-145
MDA-N = system: MDA-N
HCC 2998 = system: HCC 2998
HOP-62 = system: HOP-62
HOP-92 = system: HOP-92
SW-620 = system: SW-620
OVCAR-4 = system: OVCAR-4
HCT-15 = system: HCT-15
TK-10 = system: TK-10
RPMI-8226 = system: RPMI-8226
COLO 205 = system: COLO 205
UACC-62 = system: UACC-62
SR = system: SR
NCI-H460 = system: NCI-H460
HCT-116 = system: HCT-116
SNB-19 = system: SNB-19
SF-268 = system: SF-268
BT-549 = system: BT-549
SK-MEL-5 = system: SK-MEL-5
NCI/ADR-RES = system: NCI/ADR-RES
PC-3 = system: PC-3
LOX IMVI = system: LOX IMVI
IGROV-1 = system: IGROV-1
OVCAR-3 = system: OVCAR-3
K562 = system: K562
KM12 = system: KM12
SF-295 = system: SF-295
SK-OV-3 = system: SK-OV-3
UO-31 = system: UO-31
U-251 = system: U-251
SN12C = system: SN12C
HT-29 = system: HT-29
NCI-H226 = system: NCI-H226
HL-60 = system: HL-60
MOLT-4 = system: MOLT-4
786-0 = system: 786-0
A549 = system: A549
SK-MEL-28 = system: SK-MEL-28
Malme-3M = system: Malme-3M
SNB-75 = system: SNB-75
EKVX = system: EKVX
SF-539 = system: SF-539
ACHN = system: ACHN
RXF 393 = system: RXF 393
NCI-H23 = system: NCI-H23
OVCAR-5 = system: OVCAR-5
MDA-MB-435 = system: MDA-MB-435
OVCAR-8 = system: OVCAR-8
A498 = system: A498

Cc1cccc(Nc2nc3ccccc3nc2NS(=O)(=O)c2ccc(N)cc2)c1 was tested, and the GI50 (SK-MEL-2) was 24.9 µM (inactive), the GI50 (NCI-H522) was 18 µM (inactive) and the GI50 (CCRF-CEM) was 15.2 µM (inactive). For the same compound, the GI50 (M14) was 37.8 µM (inactive), the GI50 (UACC-257) was 41.4 µM (inactive) and the GI50 (T47D) was 34.5 µM (inactive). For the same compound, the GI50 (CAKI-1) was 30.7 µM (inactive), the GI50 (MDA-MB-231) was 36.3 µM (inactive) and the GI50 (Hs-578T) was 49.5 µM (inactive). The GI50 (MCF7) was 24.4 µM (inactive), the GI50 (DU-145) was 37.2 µM (inactive) and the GI50 (MDA-N) was 45.9 µM (inactive). The GI50 (HCC 2998) was 30.9 µM (inactive), the GI50 (HOP-62) was 25.7 µM (inactive) and the GI50 (HOP-92) was 40.3 µM (inactive). The GI50 (SW-620) was 17.6 µM (inactive), the GI50 (OVCAR-4) was 10 µM (inactive) and the GI50 (HCT-15) was 34.1 µM. The GI50 (TK-10) was 32.5 µM (inactive), the GI50 (RPMI-8226) was 23.4 µM (inactive) and the GI50 (COLO 205) was 21.1 µM (inactive). The GI50 (UACC-62) was 38.4 µM (inactive), the GI50 (SR) was 19.8 µM (inactive) and the GI50 (NCI-H460) was 32.5 µM (inactive). For the same compound, the GI50 (HCT-116) was 33.1 µM (inactive), the GI50 (SNB-19) was 31.3 µM (inactive) and the GI50 (SF-268) was 63.7 µM (inactive). The GI50 (BT-549) was 9.42 µM (inactive), the GI50 (SK-MEL-5) was 35.5 µM (inactive) and the GI50 (NCI/ADR-RES) was 36.1 µM (inactive). The GI50 (PC-3) was 29.6 µM (inactive), the GI50 (LOX IMVI) was 52.1 µM (inactive) and the GI50 (IGROV-1) was 33 µM (inactive). For the same compound, the GI50 (OVCAR-3) was 38.5 µM (inactive), the GI50 (K562) was 25.2 µM (inactive) and the GI50 (KM12) was 26.7 µM (inactive). The GI50 (SF-295) was 34.8 µM (inactive), the GI50 (SK-OV-3) was 54.8 µM (inactive) and the GI50 (UO-31) was 16.2 µM (inactive). For the same compound, the GI50 (U-251) was 20.7 µM (inactive), the GI50 (SN12C) was 36.6 µM (inactive) and the GI50 (HT-29) was 48.3 µM (inactive). The GI50 (NCI-H226) was 60.4 µM (inactive), the GI50 (HL-60) was 28.1 µM (inactive) and the GI50 (MOLT-4) was 11.7 µM (inactive). The GI50 (786-0) was 30 µM (inactive), the GI50 (A549) was 23.8 µM (inactive) and the GI50 (SK-MEL-28) was 27.7 µM (inactive). The GI50 (Malme-3M) was 78.7 µM (inactive), the GI50 (SNB-75) was 52.8 µM (inactive) and the GI50 (EKVX) was 54.3 µM (inactive). For the same compound, the GI50 (SF-539) was 19.1 µM (inactive), the GI50 (ACHN) was 32.2 µM (inactive) and the GI50 (RXF 393) was 18.5 µM (inactive). For the same compound, the GI50 (NCI-H23) was 5.61 µM (inactive), the GI50 (OVCAR-5) was > 100 µM (inactive) and the GI50 (MDA-MB-435) was 38.6 µM (inactive). For the same compound, the GI50 (OVCAR-8) was 39.6 µM (inactive).

For NCCCNCCCCN1CCOC1=O, the GI50 (A498) was > 100 µM (inactive), the GI50 (SK-MEL-2) was > 100 µM (inactive) and the GI50 (NCI-H522) was > 100 µM (inactive). The GI50 (CCRF-CEM) was > 100 µM (inactive), the GI50 (M14) was > 100 µM (inactive) and the GI50 (UACC-257) was > 100 µM (inactive). The GI50 (T47D) was > 100 µM (inactive), the GI50 (CAKI-1) was > 100 µM (inactive) and the GI50 (MDA-MB-231) was > 100 µM (inactive). For the same compound, the GI50 (Hs-578T) was > 100 µM (inactive), the GI50 (MCF7) was > 100 µM (inactive) and the GI50 (DU-145) was > 100 µM (inactive). For the same compound, the GI50 (MDA-N) was > 100 µM (inactive), the GI50 (HCC 2998) was > 100 µM (inactive) and the GI50 (HOP-62) was > 100 µM (inactive). The GI50 (SW-620) was > 100 µM (inactive), the GI50 (HCT-15) was > 100 µM and the GI50 (TK-10) was > 100 µM (inactive). The GI50 (RPMI-8226) was > 100 µM (inactive), the GI50 (COLO 205) was > 100 µM (inactive) and the GI50 (UACC-62) was > 100 µM (inactive). The GI50 (SR) was > 100 µM (inactive), the GI50 (NCI-H460) was > 100 µM (inactive) and the GI50 (HCT-116) was > 100 µM (inactive). The GI50 (SNB-19) was > 100 µM (inactive), the GI50 (SF-268) was > 100 µM (inactive) and the GI50 (BT-549) was > 100 µM (inactive). For the same compound, the GI50 (SK-MEL-5) was > 100 µM (inactive), the GI50 (NCI/ADR-RES) was > 100 µM (inactive) and the GI50 (PC-3) was > 100 µM (inactive). The GI50 (LOX IMVI) was > 100 µM (inactive), the GI50 (IGROV-1) was > 100 µM (inactive) and the GI50 (OVCAR-3) was > 100 µM (inactive). For the same compound, the GI50 (K562) was > 100 µM (inactive), the GI50 (KM12) was > 100 µM (inactive) and the GI50 (SF-295) was > 100 µM (inactive). The GI50 (SK-OV-3) was > 100 µM (inactive), the GI50 (UO-31) was > 100 µM (inactive) and the GI50 (U-251) was > 100 µM (inactive). For the same compound, the GI50 (SN12C) was > 100 µM (inactive), the GI50 (HT-29) was > 100 µM (inactive) and the GI50 (NCI-H226) was > 100 µM (inactive). For the same compound, the GI50 (HL-60) was > 100 µM (inactive), the GI50 (MOLT-4) was > 100 µM (inactive) and the GI50 (786-0) was > 100 µM (inactive). For the same compound, the GI50 (A549) was > 100 µM (inactive), the GI50 (SK-MEL-28) was > 100 µM (inactive) and the GI50 (Malme-3M) was > 100 µM (inactive). For the same compound, the GI50 (SNB-75) was > 100 µM (inactive), the GI50 (EKVX) was > 100 µM (inactive) and the GI50 (SF-539) was > 100 µM (inactive). The GI50 (ACHN) was > 100 µM (inactive), the GI50 (NCI-H23) was > 100 µM (inactive) and the GI50 (OVCAR-5) was > 100 µM (inactive). The GI50 (MDA-MB-435) was > 100 µM (inactive) and the GI50 (OVCAR-8) was > 100 µM (inactive).
